Read-outs that look alike come from different tables or passages of the source.
Key:
[1] = test system: antibodies in serum of cattle infected with M. avium paratuberculosis (MAP); type: binding; settings: serum 1:20, IgG Fc secondary antibody, average of four replicates
[2] = test system: antibodies in serum of cattle infected with bovine M. tuberculosis (B tb); test: ELISA assay of antibody binding to antigen, serum of cattle naturally infected with bovine TB
Method: The binding of antibodies in serum of cattle infected with M. tuberculosis or M. avium with the antigens detailed in example 3 was measured in an ELISA assay.
ELISA assays were carried out as known to those practiced in the art using 96 well plates. In the first procedure, the ELISA assay was carried out on 96-well microplates and the purified antigens were dissolved in n-hexane at a concentration of 62.5 μg/ml. The antigen solutions were diluted and 50 μl and placed in each well. The plates were left to dry at room temperature overnight. Blocking was done with 0.5% casein/PBS (400 μl/well) and the plates are left to incubate at 25° C. for 1 h. The casein was aspirated using the LT-3500 plate washer and the plates flicked dry. Then the serum (1:20 dilution in 0.5% casein/PBS, pH 7.4) was added to the plate (50 μl/well) and left to incubate at 25° C. for 1 h. The serum was aspirated and washed three times with (casein/PBS, 400 μl/well) using the same plate washer and the plates were flicked dry again. After that, the secondary antibody, in the example given IgG Fc (1:1000 dilution in 0.5% casein/PBS) was added to the plate (50 μl/well) and the plates were left to incubate at 25° C. for 30 min. The plates were washed three times again with (casein/PBS, 400 μl/well) and dried. Then, the OPD substrate was added to the plates, which were left to incubate at 25° C. for 30 min. Finally, 2.5 M H2SO4 (50 μl/well) was added and the absorbances of each well were read at 492, 450 and 630 nm using an LT-4000 plate reader.
Serum used in this work was obtained from cattle infected with MAP, diagnosed as naturally infected with bovine TB, or known not to be infected using standard assays.
All measurements were taken as four replicates unless otherwise stated. These were averaged to provide the data in the table which are optical density measurements at 492 nm.

[3] = test system: antibodies in serum of cattle known not to be infected; type: binding
[4] = serum MAP (experimentally infected)
[5] = VLA (Naturally infected) bovis serum sample 1
[6] = VLA (Naturally infected) bovis serum sample 2
[7] = VLA (Naturally infected) bovis serum sample 3
[8] = VLA (Naturally infected) bovis serum sample 4
[9] = VLA (Naturally infected) bovis serum sample 5
[10] = VLA (Naturally infected) bovis serum sample 6
[11] = VLA (Naturally infected) bovis serum sample 7
[12] = VLA (Naturally infected) bovis serum sample 8
[13] = VLA (Naturally infected) bovis serum sample 9
[14] = VLA (Naturally infected) bovis serum sample 10
[15] = VLA (Naturally infected) bovis serum sample 11
[16] = VLA (Naturally infected) bovis serum sample 12
[17] = VLA (Naturally infected) bovis serum sample 13
[18] = VLA (Naturally infected) bovis serum sample 14
[19] = VLA (Naturally infected) bovis serum sample 15
[20] = VLA (Naturally infected) bovis serum sample 16
[21] = VLA (Naturally infected) bovis serum sample 17
[22] = VLA (Naturally infected) bovis serum sample 18
[23] = VLA (Naturally infected) bovis serum sample 19
[24] = VLA (Naturally infected) bovis serum sample 20
[25] = VLA (Non-vaccinates) serum sample 21
[26] = VLA (Non-vaccinates) serum sample 22
[27] = VLA (Non-vaccinates) serum sample 23
[28] = VLA (Non-vaccinates) serum sample 24
[29] = VLA (Non-vaccinates) serum sample 25
[30] = VLA (Non-vaccinates) serum sample 26
[31] = VLA (Non-vaccinates) serum sample 27
[32] = VLA (Non-vaccinates) serum sample 28
[33] = VLA (Non-vaccinates) serum sample 29
[34] = VLA (Non-vaccinates) serum sample 30
[35] = VLA (Non-vaccinates) serum sample 31
[36] = VLA (Non-vaccinates) serum sample 32
[37] = VLA (Non-vaccinates) serum sample 33
[38] = VLA (Non-vaccinates) serum sample 34
[39] = VLA (Non-vaccinates) serum sample 35
[40] = VLA (Non-vaccinates) serum sample 36

| SMILES | optical density measurements at 492 nm ([1]; serum MAP (Naturally infected)) | optical density measurements at 492 nm [1, 4] | optical density measurements at 492 nm [2, 5] | optical density measurements at 492 nm [2, 6] | optical density measurements at 492 nm [2, 7] | optical density measurements at 492 nm [2, 8] | optical density measurements at 492 nm [2, 9] | optical density measurements at 492 nm [2, 10] | optical density measurements at 492 nm [2, 11] | optical density measurements at 492 nm [2, 12] | optical density measurements at 492 nm [2, 13] | optical density measurements at 492 nm [2, 14] | optical density measurements at 492 nm [2, 15] | optical density measurements at 492 nm [2, 16] | optical density measurements at 492 nm [2, 17] | optical density measurements at 492 nm [2, 18] | optical density measurements at 492 nm [2, 19] | optical density measurements at 492 nm [2, 20] | optical density measurements at 492 nm [2, 21] | optical density measurements at 492 nm [2, 22] | other results |
| --- | --- | --- | --- | --- | --- | --- | --- | --- | --- | --- | --- | --- | --- | --- | --- | --- | --- | --- | --- | --- | --- |
| CCCCCCCCCCCCCCCCCCCCCC[C@@H](C(=O)OCC1OC(OC2OC(COC(=O)[C@H](CCCCCCCCCCCCCCCCCCCCCC)[C@H](O)CCCCCCCCCCCCCCCC[C@H]3C[C@@H]3[C@@H](C)CCCCCCCCCCCCCCCCCCC(=O)O[C@@H](C)CCCCCCCCCCCCCCCCCC)C(O)C(O)C2O)C(O)C(O)C1O)[C@H](O)CCCCCCCCCCCCCCCC[C@H]1C[C@@H]1[C@@H](C)CCCCCCCCCCCCCCCCCCC(=O)O[C@@H](C)CCCCCCCCCCCCCCCCCC (stereo partly shown) [Antigen F] | 4.00 | 1.44 | 1.07 | 0.67 | 2.47 | 0.67 | 0.29 | 0.18 | 0.51 | 2.23 | 0.18 | 0.24 | 0.31 | 1.08 | 0.66 | 0.23 | 0.12 | 0.62 | 0.47 | 0.52 | optical density measurements at 492 nm [2, 23]: 0.69; optical density measurements at 492 nm [2, 24]: 1.08; optical density measurements at 492 nm [3, 25]: 0.25; optical density measurements at 492 nm [3, 26]: 0.25; optical density measurements at 492 nm [3, 27]: 0.17; optical density measurements at 492 nm [3, 28]: 0.21; optical density measurements at 492 nm [3, 29]: 0.15; optical density measurements at 492 nm [3, 30]: 3.66; optical density measurements at 492 nm [3, 31]: 1.96; optical density measurements at 492 nm [3, 32]: 0.36; optical density measurements at 492 nm [3, 33]: 0.29; optical density measurements at 492 nm [3, 34]: 0.26; optical density measurements at 492 nm [3, 35]: 0.45; optical density measurements at 492 nm [3, 36]: 0.06; optical density measurements at 492 nm [3, 37]: 0.08; optical density measurements at 492 nm [3, 38]: 0.11; optical density measurements at 492 nm [3, 39]: 0.31; optical density measurements at 492 nm [3, 40]: 0.12 |
| CCCCCCCCCCCCCCCCCCCCCC[C@@H](C(=O)OCC1OC(OC2OC(CO)C(O)C(O)C2O)C(O)C(O)C1O)[C@H](O)CCCCCCCCCCCCCCCC[C@H]1C[C@@H]1[C@@H](C)CCCCCCCCCCCCCCCCCCC(=O)O[C@@H](C)CCCCCCCCCCCCCCCCCC (stereo partly shown) [Antigen G] | 4.38 | 4.38 | 3.68 | 2.78 | 4.06 | 0.63 | 1.04 | 0.88 | 2.34 | 1.39 | 0.40 | 0.52 | 1.63 | 1.54 | 0.26 | 0.22 | 0.15 | 0.15 | 0.11 | 0.27 | optical density measurements at 492 nm [2, 23]: 0.11; optical density measurements at 492 nm [2, 24]: 1.54; optical density measurements at 492 nm [3, 25]: 0.37; optical density measurements at 492 nm [3, 26]: 0.14; optical density measurements at 492 nm [3, 27]: 0.24; optical density measurements at 492 nm [3, 28]: 0.51; optical density measurements at 492 nm [3, 29]: 0.27; optical density measurements at 492 nm [3, 30]: 0.82; optical density measurements at 492 nm [3, 31]: 0.55; optical density measurements at 492 nm [3, 32]: 0.46; optical density measurements at 492 nm [3, 33]: 1.58; optical density measurements at 492 nm [3, 34]: 0.16; optical density measurements at 492 nm [3, 35]: 1.99; optical density measurements at 492 nm [3, 36]: 0.06; optical density measurements at 492 nm [3, 37]: 0.10; optical density measurements at 492 nm [3, 38]: 0.07; optical density measurements at 492 nm [3, 39]: 0.07; optical density measurements at 492 nm [3, 40]: 0.07 |
